# Laboratory results from article PMC9119131, “Fragile protein folds: sequence and environmental factors affecting the equilibrium of two interconverting, stably folded protein conformations” (Magnetic resonance, 2021).
# How the values were obtained:
# [1] = biological target: T1, ARNT PAS-B (aryl hydrocarbon receptor nuclear translocator) (Homo sapiens, UniProt P27540, Y456T); test: […]/1H HSQC NMR titration ([…]/1H HSQC titration also gave Kd […]); type: binding
# T1 construct: PAS-B domain, residues 356–470 (with N-terminal GAMD cloning artifact)
# [2] = biological target: T1, ARNT PAS-B (aryl hydrocarbon receptor nuclear translocator); test: […]/1H HSQC NMR titration (L391 δ[…] methyl); type: binding
# T1 sequence (P27540 356-470 Y456T): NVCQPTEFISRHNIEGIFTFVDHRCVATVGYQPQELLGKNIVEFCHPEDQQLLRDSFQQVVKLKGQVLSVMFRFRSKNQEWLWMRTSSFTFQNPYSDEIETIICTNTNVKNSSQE
Structure (SMILES),Kd [1],Kd [2]
"FC(F)(F)c1cc(-c2nn[nH]n2)cc(C(F)(F)F)c1 [KG-548, 5-(3,5-bis(trifluoromethyl)phenyl)tetrazole]",684 ± 33.1 µM,–
"Oc1cc(C(F)(F)F)cc(C(F)(F)F)c1 [KG-655, 3,5-bis(trifluoromethyl)phenol]",–,1950 ± 152 µM
